The text below walks through data of patent publication US20230181678A1, “NOVEL ANTIBACTERIAL PEPTIDE OR PEPTIDE ANALOG AND USE THEREOF” (CAMP THERAPEUTICS INC., priority 2020, published 2023).

Square brackets hold non-standard residues; d marks the D form. * marks the point of attachment. Octanoyl = CCCCCCCC(=O)*; Dab = NCC[C@H](N)C(=O)O

The test system of series [1] is human red blood cells (hRBC). Description: Hemolysis assay. The class given is cell-based. Conditions: hRBCs, 37° C., 4 hours. As to the method:
To identify toxicity of the peptides, human red blood cell (hRBC) hemolytic activity assay (hemolysis assay) was performed.
Specifically, percent hemolysis of human red blood cells (hRBC) was determined by comparing the cells incubated in 100% deionized water (DW) as a positive control and peptide-free PBS as a negative control. hRBCs were washed 3 times with PBS using centrifugation at 500 g for 5 min, and 5% (v/v) hematocrit was suspended in PBS buffer (Hyclone). The peptide was diluted using 2-fold serial dilution with PBS, and hRBCs were added at 2.5×10^8 cells to each well. The sample was incubated at 37° C. for 4 hours. After centrifugation at 1400 rpm for 5 minutes, 180 μL of the supernatant was transferred to a transparent flat-bottom 96-well plate. An amount of hemoglobin released by the peptide was determined by measuring absorbance at 405 nm using an EPOCH2 microplate reader (BioTek, Winooski, USA).
Hemolytic activity (%)=(absorbance of sample−absorbance of PBS)/(absorbance of 100% DW−A405 of PBS)×100

Series [2] concerns inner membrane of E. coli ATCC 25922. Nature of the series: Enzyme assay, inner membrane leakage (β-galactosidase release, ONPG). The class given is cell-based. Conditions: 1.5 mM ONPG. As to the method:
(§1) It was observed, through an enzyme assay, whether the sensitizing peptide destroyed the outer and inner membranes of Gram-negative bacteria. In the presence of the sensitizing peptide, it was observed whether in a case where 1.5 mM ONPG was used together therewith, β-galactosidase was released from E. coli ATCC 25922 for the inner membrane, and whether in a case where 200 μM CENTA was used together therewith, β-lactamase was released from E. coli NDM-1 for the outer membrane.
To determine leakage of the inner membrane, release of the cytoplasmic enzyme β-galactosidase was evaluated. The bacteria were diluted to OD600=1 and 1.5 mM ONPG (O-nitrophenyl-β-D-galactopyranoside) was added. Absorbance of a product of enzyme reaction was measured at 420 nm. The other procedures were carried out in the same manner as in the experiment for outer membrane destruction.

The subject of series [3] is outer membrane of E. coli NDM-1. Nature of the series: Enzyme assay, outer membrane leakage (β-lactamase release, CENTA). The class given is cell-based. Conditions: peptide 0.63 or 1.30 uM, 37° C., 1 h; 200 μM CENTA. As to the method: as §1
Specifically, to determine leakage of the outer membrane, activity of the β-lactamase released from the outer membrane was evaluated. New Delhi metallo-β-lactamase-1 (NDm-1)-producing E. coli cells were washed three times with DPBS and suspended in the same buffer. The cells were diluted to an OD600 of 0.2 and treated with the peptide at a concentration of 0.63 or 1.30 uM at 37° C. for 1 h. After centrifugation, the supernatant was incubated with 200 μM CENTATM β-lactamase substrate at 37° C. for 1 hour. An optical density was obtained by measuring absorbance of a product of enzyme reaction at 405 nm using a microplate reader (Molecular Devices Co., Menlo Park, Calif.).
The results are illustrated in FIGS. 12A and 12B. The y-axis is absorbance measured at 405 nm, and higher absorbance is observed as a higher amount of β-lactamase is released due to destruction of the membrane.

In series [4] the test system is K.p. ATCC 700603. Description: MIC assay, sensitizing effect of peptide on rifampicin. It counts as cell-based, Klebsiella pneumoniae. Conditions: FIG. 9C, peptide 4 ug/ml. Here is the method:
(§2) All MIC assay experiments were performed using the Clinical and Laboratory Standards Institute (CLSI) guidelines (Clinical & Laboratory Standards Institute: CLSI Guidelines, 2017). Bacterial cells cultured overnight were diluted to 0.05 McFarland standard using McFarland (KIT […] PLUS INSTRUMENT, Biomerieux) in Muller Hinton II Broth (cation-adjusted) (Difco). The cells were inoculated at 1.5×10^5 CFU per 200 μL solution of each well in a 96-well plate. The peptide and the antibiotic were prepared using 2-fold serially diluted concentrations. […] Incubation was performed at 37° C. for 18 hours, and then absorbance was measured at 600 nm using an EPOCH2 microplate reader (BioTek, Winooski, USA) to calculate a MIC value. The MIC value was defined as a concentration of the antibiotic or peptide at which bacterial growth was inhibited to a level of lower than 10% growth of the positive control. Fold reduction was calculated using the following expression.
(§3) ATCC 25922, A.b. ATCC 17978, K.p. ATCC 700603, and P.a. ATCC 27853, or CRE (E.c. NDM-1, K.p. NDM-1, or K.p. KPC) (FIGS. 9 and 10).

Series [5] deals with E.c. ATCC 25922, A.b. ATCC 17978, K.p. ATCC 700603, P.a. ATCC 27853, or CRE (E.c. NDM-1, K.p. NDM-1, or K.p. KPC). Nature of the series: MIC assay, comparison with L9P on rifampicin or colistin. The class given is cell-based. Conditions: FIGS. 9 and 10. Here is the method: as §2, §3
Series [6] concerns P.a. ATCC 27853. Description: MIC assay, sensitizing effect of peptide on rifampicin or colistin. It counts as cell-based, Pseudomonas aeruginosa. Conditions: peptide 4 ug/ml. As to the method:
as §2, §3

The test system of series [7] is Ec NDM-1. Nature of the series: MIC assay, sensitizing effect of peptide on rifampicin (CRE). The class given is cell-based, E. coli. Conditions: FIG. 9E; Ec NDM-1 (CRE); peptide 4 ug/ml. As to the method:
as §2, §3

Series [8] concerns K.p. KPC. Description: MIC assay, sensitizing effect of peptide on rifampicin or colistin (CRE). It counts as cell-based, Klebsiella pneumoniae. Conditions: peptide 4 ug/ml. As to the method: as §2, §3
Series [9] concerns E. coli clinical strains. Description: MIC50 and MIC90 in clinical strains with CMP1709 (colistin). The class given is cell-based. Conditions: CMP1709 4 ug/ml with colistin vs colistin alone; results not shown. An excerpt: (§4) The selected clinical strains E. coli, K. pneumoniae, E. cloacae, C. freundii, and S. marcescens were all carbapenem-resistant strains, and the selected clinical strain P. aeruginosa included 43 strains of imipenem- and meropenem-resistant strains, and 60 strains of imipenem- and meropenem-sensitive strains.
(§5) The results are illustrated in FIG. 11 (results not shown for colistin). The “Fold reduction of MIC90” in FIG. 11 indicates a MIC90 value observed in a case where the antibacterial agent was used in combination with CMP1709 as compared with a case where the antibacterial agent was used alone.

The test system of series [10] is E. cloacae clinical strains. Described as above. The class given is cell-based. Conditions: CMP1709 4 ug/ml with colistin vs colistin alone; results not shown.
Text: as §4, §5

In series [11] the test system is Acinetobacter baumannii ATCC 17978. Description: MIC assay, sensitizing effect of peptide on antibiotics. It counts as cell-based. Conditions: FIG. 9B; A.b. ATCC 17978; peptide 4 ug/ml.
The test system of series [12] is E. coli NDM-1. Nature of the series: Neutropenic mouse thigh infection model. It counts as in vivo.
Series [13] has as its system E. coli ATCC 25922. Nature of the series: MIC assay, sensitizing effect of peptide on antibacterial agents. It counts as cell-based. Conditions: E.c. ATCC 25922, peptide 4 ug/ml. Here is the method: as §2
Fold reduction=MIC of antibiotic alone/MIC of antibiotic in presence of sensitizing peptide
Using the same MIC assay method as in Example 1, sensitizing effects of the peptide L9P (CMP1107, 1 ug/ml), which is known as a conventional sensitive AMP, and CMP1401 (1 ug/ml) were compared on existing antibacterial agents against E. coli ATCC 25922 (FIG. 5A).
In addition, MIC screening was used to compare sensitizing effects of the competitive drug SPR741 and the peptide CMP1401 or CMP1501 on the existing antibacterial agents against E. coli ATCC 25922 (FIGS. 5B and 5C). SPR741, which is a previously known polymyxin B (PMB) analog, is a sensitive AMP, and is a drug that has been identified through preclinical experiments to be effective against Gram-negative bacteria in a case of being used together with existing Gram-positive antibiotics.
as §3

In series [14] the test system is Kp NDM-1. Description: MIC assay, sensitizing effect of peptide on rifampicin (CRE). Conditions: FIG. 9F; Kp NDM-1 (CRE); peptide 4 ug/ml. It counts as cell-based, Klebsiella pneumoniae. Here is the method: as §2, §3

For the compound `CC[C@H](C)[C@H](NC(=O)CN)C(=O)NCC(=O)N[C@@H](C)C(=O)N[C@H](C(=O)N[C@@H](CC(C)C)C(=O)N[C@@H](CCCCN)C(=O)N[C@H](C(=O)N[C@@H](CC(C)C)C(=O)N[C@H](C(=O)N[C@H](C(=O)NCC(=O)N[C@@H](CC(C)C)C(=O)N1CCC[C@H]1C(=O)N[C@@H](C)C(=O)N[C@@H](CC(C)C)C(=O)N[C@H](C(=O)N[C@@H](CO)C(=O)N[C@@H](Cc1c[nH]c2ccccc12)C(=O)N[C@H](C(=O)N[C@@H](CCCCN)C(=O)N[C@@H](CCCNC(=N)N)C(=O)N[C@@H](CCCCN)C(=O)N[C@@H](CCCNC(=N)N)C(=O)N[C@@H](CCC(N)=O)C(=O)N[C@@H](CCC(N)=O)C(N)=O)[C@@H](C)CC)[C@@H](C)CC)[C@@H](C)O)[C@@H](C)O)C(C)C)C(C)C` [melittin, reference compound], in series [1], the hemolytic activity result is “exhibited hemolysis of hRBCs starting from low concentrations”. For the same compound, in series [2], the “destruction of inner membrane (β-galactosidase release)” value was “destroyed both the inner and outer membranes of bacteria”. In series [3], the “destruction of outer membrane (β-lactamase release)” value was “destroyed both the inner and outer membranes of bacteria”.
On to “OctA-DabDabAFDabVADabDabPLSLLDab-NH2 (Octanoyl-[Dab][Dab]AF[Dab]VA[Dab][Dab]PLSLL[Dab]-NH2; SMILES CCCCCCCC(=O)N[C@@H](CCN)C(=O)N[C@@H](CCN)C(=O)N[C@@H](C)C(=O)N[C@@H](Cc1ccccc1)C(=O)N[C@@H](CCN)C(=O)N[C@H](C(=O)N[C@@H](C)C(=O)N[C@@H](CCN)C(=O)N[C@@H](CCN)C(=O)N1CCC[C@H]1C(=O)N[C@@H](CC(C)C)C(=O)N[C@@H](CO)C(=O)N[C@@H](CC(C)C)C(=O)N[C@@H](CC(C)C)C(=O)N[C@@H](CCN)C(N)=O)C(C)C) [CMP1709]”, for which the “Decreased MIC value of rifampicin at peptide concentration of 4 ug/ml” value was 7.8 ng/mL in series [4]; 0.25 µg/mL in series [6] (FIG. 9D); 4 ng/mL in series [7]; 7.8 ng/mL in series [8] (FIG. 9G); 0.078 µg/mL in series [11]; 2 ng/mL in [13] (FIG. 9A). Also, the “Decreased MIC value of rifampicin at peptide concentration of 4 ug/ml” value in series [14] was 7.8 ng/mL. Moreover, the “sensitizing effect on rifampicin or colistin compared with L9P” value in [5] was “very good sensitizing effect”. Further, the “Decreased MIC value of colisitin at peptide concentration of 4 ug/ml” value worked out at 0.063 µg/mL in series [6] (FIG. 10B), 0.50 µg/mL in series [8] (FIG. 10C) and 0.016 µg/mL in [13] (FIG. 10A). Moreover, the “sensitizing effect with colistin” value in series [9] and in series [10] was “two times” throughout. The “decrease in number of colonies compared with rifampicin alone” value in [12] (CMP1709 75 mg/kg in the presence of 20 mg/kg of rifampicin) was 8.7 fold. Moreover, the “number of colonies, peptide administered alone” value in series [12] (CMP1709 alone) is reported as “No changes were observed in the number of colonies”. Besides, the “therapeutic efficacy of combination therapy with rifampicin” value in series [12] (rifampicin and CMP1709) was “excellent therapeutic efficacy”.
